Measurements: patent publication US20230101747A1 (Schrödinger, Inc., priority 2019, published 2023)

These compounds were tested against T1, Full length human CDC7 protein co-expressed with DBF4 (Homo sapiens, UniProt O00311) (assay: CDC7 kinase biochemical assay (ADP-Glo, PDKtide substrate)). Conditions: 0.1 nM CDC7/DBF4, 1 uM ATP, 10 uM PDKtide, 4 h; read-out: CDC7 ADP-Glo PDKtide IC50.
T1 construct: Full length human CDC7 protein co-expressed with DBF4; purchased SignalChem (China)
Procedure: CDC7 Kinase Biochemical Assay Protocol:
Full length human CDC7 protein co-expressed with DBF4 was purchased from SignalChem (China). CDC7 kinase activity was determined with PDKtide (SignalChem) as a substrate and by measuring ADP production using the ADP-Glo™ Kinase Assay kit (Promega) following the manufacturers instructions. The kinase reaction was performed using the following conditions: Buffer: 40 mM Tris pH 7.5, 20 mM MgCl2, 0.1 mg/ml BSA and 50 uM DTT. Final reaction mix contained 0.1 nM CDC7/DBF4, 1 uM ATP and 10 uM PDKtide. The kinase reaction time was 4 h. The ADP-Glo signal was measured using an EnVision plate reader (PerkinELmer).
Percent inhibition of CDC7 kinase activity was calculated based on the following formula: […]
SSample: the signal of compounds SHigh ctrl: the signal of high control (DMSO) SLow Ctrl: the signal of low control (positive control CDC7 inhibitor)

T1 sequence (O00311 whole entry): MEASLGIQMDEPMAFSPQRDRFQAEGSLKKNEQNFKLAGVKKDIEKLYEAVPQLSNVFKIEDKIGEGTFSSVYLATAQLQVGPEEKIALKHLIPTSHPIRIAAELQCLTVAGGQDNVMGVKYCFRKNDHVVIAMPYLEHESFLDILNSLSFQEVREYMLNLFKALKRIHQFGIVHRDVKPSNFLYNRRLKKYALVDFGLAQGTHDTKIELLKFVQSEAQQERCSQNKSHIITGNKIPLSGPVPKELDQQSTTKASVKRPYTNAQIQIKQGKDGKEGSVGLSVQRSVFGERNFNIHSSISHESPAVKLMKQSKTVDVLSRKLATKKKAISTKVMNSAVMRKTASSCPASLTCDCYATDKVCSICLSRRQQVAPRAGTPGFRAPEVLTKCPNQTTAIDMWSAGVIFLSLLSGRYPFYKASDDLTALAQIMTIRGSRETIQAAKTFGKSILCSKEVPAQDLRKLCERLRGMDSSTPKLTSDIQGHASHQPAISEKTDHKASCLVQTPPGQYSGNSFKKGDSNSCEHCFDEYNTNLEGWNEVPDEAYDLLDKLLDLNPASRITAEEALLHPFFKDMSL
T1 sequence (Q9UBU7 whole entry partner): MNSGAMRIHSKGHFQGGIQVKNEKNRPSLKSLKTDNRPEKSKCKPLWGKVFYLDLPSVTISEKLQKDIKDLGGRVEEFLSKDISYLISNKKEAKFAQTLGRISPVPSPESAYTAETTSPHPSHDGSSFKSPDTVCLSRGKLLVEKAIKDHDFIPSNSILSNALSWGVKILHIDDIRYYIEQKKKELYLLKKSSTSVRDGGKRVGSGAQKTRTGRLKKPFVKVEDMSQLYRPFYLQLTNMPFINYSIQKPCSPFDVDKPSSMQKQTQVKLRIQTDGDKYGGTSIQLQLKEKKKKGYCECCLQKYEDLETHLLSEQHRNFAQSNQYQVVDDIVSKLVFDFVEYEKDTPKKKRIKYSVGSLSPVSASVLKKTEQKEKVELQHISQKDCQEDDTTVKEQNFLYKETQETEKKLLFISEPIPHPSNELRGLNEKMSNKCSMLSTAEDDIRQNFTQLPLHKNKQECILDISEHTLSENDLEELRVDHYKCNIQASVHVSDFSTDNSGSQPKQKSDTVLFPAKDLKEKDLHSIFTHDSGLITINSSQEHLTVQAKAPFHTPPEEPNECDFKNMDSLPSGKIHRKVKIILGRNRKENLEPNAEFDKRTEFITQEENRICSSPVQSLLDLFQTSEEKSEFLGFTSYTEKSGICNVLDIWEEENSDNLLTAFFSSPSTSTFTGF

SMILES | IC50 [nM]
CC1(C)NC(=O)c2sc(-c3ccnc4[nH]ccc34)c3c2N1CCO3 [Compound 14, 6,6-dimethyl-2-(1H-pyrrolo[2,3-b]pyridin-4-yl)-4,5,6,7-tetrahydro-8H-3-oxa-1-thia-5a,7-diazaacenaphthylen-8-one] | 1 to 10
O=C1N[C@H](C23CCC(CC2)O3)CN2CC(F)(F)Cc3c(-c4cn[nH]c4)sc1c32 (single isomer, unassigned) [Compound 122] | > 10
C[C@H]1CN2C(=O)COc3c(-c4cn[nH]c4)sc(c32)C(=O)N1 [Compound 20, (S)-7-methyl-2-(1H-pyrazol-4-yl)-7,8-dihydro-3-oxa-1-thia-5a,8-diazabenzo[cd]azulene-5,9(4H,6H)-dione] | < 1
CCC(=O)C[C@@H]1CNC(=O)c2sc(-c3cn[nH]c3)c3c2N1CCC3 [Compound 90, (9R)-9-(2-oxobutyl)-3-(1H-pyrazol-4-yl)-2-thia-8,11-diazatricyclo[6.4.1.0^4,13]trideca-1(13),3-dien-12-one] | 1 to 10
O=C1N[C@@H]([C@@H]2CCCO2)CN2CC(F)(F)Cc3c(-c4cn[nH]c4)sc1c32 (single isomer, unassigned) [Compound 120] | < 1
CC1(C)NC(=O)c2sc(-c3ccncn3)c3c2N1CCO3 [Compound 5, 6,6-Dimethyl-2-(pyrimidin-4-yl)-4,5,6,7-tetrahydro-8H-3-oxa-1-thia-5a,7-diazaacenaphthylen-8-one] | > 10
CC1(C)NC(=O)c2sc(-c3ccnc(N)c3)c3c2N1CCO3 [Compound 13, 2-(2-aminopyridin-4-yl)-6,6-dimethyl-4,5,6,7-tetrahydro-8H-3-oxa-1-thia-5a,7-diazaacenaphthylen-8-one] | 1 to 10
COC[C@@H]1[C@H](C2CCC2)NC(=O)c2sc(-c3cn[nH]c3)c3c2N1CCO3 (single isomer, unassigned) [Compound 99] | 1 to 10
Cc1ccnn1C[C@H]1CN2CCOc3c(-c4cn[nH]c4)sc(c32)C(=O)N1 [Compound 44, (R)-7-((5-methyl-1H-pyrazol-1-yl)methyl)-2-(1H-pyrazol-4-yl)-4,5,7,8-tetrahydro-3-oxa-1-thia-5a,8-diazabenzo[cd]azulen-9(6H)-one] | < 1
O=C1N[C@H](C2CCC2)CN2CCOc3c(-c4ccncc4)sc1c32 [Compound 106, (R)-7-cyclobutyl-2-(pyridin-4-yl)-4,5,7,8-tetrahydro-3-oxa-1-thia-5a,8-diazabenzo[cd]azulen-9(6H)-one] | < 1
Cc1cnn(C[C@H]2CNC(=O)c3sc(-c4cn[nH]c4)c4c3N2CCO4)c1 [Compound 42, (R)-6-((4-methyl-1H-pyrazol-1-yl)methyl)-2-(1H-pyrazol-4-yl)-4,5,7,8-tetrahydro-3-oxa-1-thia-5a,8-diazabenzo[cd]azulen-9(6H)-one] | > 10
CC1(C)NC(=O)c2sc(-c3ccncn3)c3c2N1CCCN3 [Compound 1, 5,5-dimethyl-1-(pyrimidin-4-yl)-4,5,6,7,8,9-hexahydro-3H-2-thia-4,5a,9-triazabenzo[cd]azulen-3-one] | < 1
CC1(C)NC(=O)c2sc(-c3cn[nH]c3)c3c2N1CCO3 [Compound 12, 6,6-dimethyl-2-(1H-pyrazol-4-yl)-4,5,6,7-tetrahydro-8H-3-oxa-1-thia-5a,7-diazaacenaphthylen-8-one] | < 1
O=C1NC[C@H](COCc2ccccc2)N2CCOc3c(-c4cn[nH]c4)sc1c32 [Compound 35, (R)-6-((benzyloxy)methyl)-2-(1H-pyrazol-4-yl)-4,5,7,8-tetrahydro-3-oxa-1-thia-5a,8-diazabenzo[cd]azulen-9(6H)-one] | 1 to 10
Cc1cnn(C[C@H]2COc3c(-c4cn[nH]c4)sc4c3N2CCNC4=O)c1 [Compound 45, (S)-5-((4-methyl-1H-pyrazol-1-yl)methyl)-2-(1H-pyrazol-4-yl)-4,5,7,8-tetrahydro-3-oxa-1-thia-5a,8-diazabenzo[cd]azulen-9(6H)-one] | 1 to 10
Cn1ccc(C2CN3CCOc4c(-c5cn[nH]c5)sc(c43)C(=O)N2)n1 (centres unmarked) [Compound 52] | 1 to 10
CC1(C)NC(=O)c2sc(-c3ccnc4ccoc34)c3c2N1CCO3 [Compound 7, 2-(furo[3,2-b]pyridin-7-yl)-6,6-dimethyl-4,5,6,7-tetrahydro-8H-3-oxa-1-thia-5a,7-diazaacenaphthylen-8-one] | > 10

SMILES | IC50 [nM]
O=C1NC[C@@H](CN2CCC2)N2CCOc3c(-c4cn[nH]c4)sc1c32 [Compound 46, (S)-6-(azetidin-1-ylmethyl)-2-(1H-pyrazol-4-yl)-4,5,7,8-tetrahydro-3-oxa-1-thia-5a,8-diazabenzo[cd]azulen-9(6H)-one] | 1 to 10
COC[C@@H]1CN(C)C(=O)c2sc(-c3cn[nH]c3)c3c2N1CCO3 [Compound 56, (S)-6-(methoxymethyl)-8-methyl-2-(1H-pyrazol-4-yl)-4,5,7,8-tetrahydro-3-oxa-1-thia-5a,8-diazabenzo[cd]azulen-9(6H)-one] | 1 to 10
O=C1N[C@@H]([C@@H]2CCCCO2)CN2CC(F)(F)Cc3c(-c4cn[nH]c4)sc1c32 (single isomer, unassigned) [Compound 140] | < 1
CC(C)(O)C[C@H]1CN2CC(F)(F)Oc3c(-c4cn[nH]c4)sc(c32)C(=O)N1 [Compound 116, (S)-4,4-difluoro-7-(2-hydroxy-2-methylpropyl)-2-(1H-pyrazol-4-yl)-4,5,7,8-tetrahydro-3-oxa-1-thia-5a,8-diazabenzo[cd]azulen-9(6H)-one] | < 1
O=C1N[C@@H](C2CCC2)[C@H](CO)N2CCOc3c(-c4cn[nH]c4)sc1c32 [Compound 92, (9R,10S)-10-cyclobutyl-9-(hydroxymethyl)-3-(1H-pyrazol-4-yl)-5-oxa-2-thia-8,11-diazatricyclo[6.4.1.0^4,13]trideca-1(13),3-dien-12-one] | < 1
O=C1NC(C2CC(F)(F)C2)CN2CC(F)Cc3c(-c4cn[nH]c4)sc1c32 (single isomer, unassigned) [Compound 130, 7-(3,3-difluorocyclobutyl)-4-fluoro-2-(1H-pyrazol-4-yl)-4,5,7,8-tetrahydro-3H-1-thia-5a,8-diazabenzo[cd]azulen-9(6H)-one] | < 1
O=C1NC[C@H](CN2CCC2)N2CCOc3c(-c4cn[nH]c4)sc1c32 [Compound 36, (R)-6-(azetidin-1-ylmethyl)-2-(1H-pyrazol-4-yl)-4,5,7,8-tetrahydro-3-oxa-1-thia-5a,8-diazabenzo[cd]azulen-9(6H)-one] | 1 to 10
O=C1NC([C@H]2[C@@H]3COC[C@@H]32)CN2CC(F)(F)Cc3c(-c4cn[nH]c4)sc1c32 (single isomer, unassigned) [Compound 124] | < 1
O=C1NC(C2CC(F)(F)C2)CN2CC(F)Cc3c(-c4cn[nH]c4)sc1c32 (single isomer, unassigned) [Compound 128, 7-(3,3-difluorocyclobutyl)-4-fluoro-2-(1H-pyrazol-4-yl)-4,5,7,8-tetrahydro-3H-1-thia-5a,8-diazabenzo[cd]azulen-9(6H)-one] | 1 to 10
O=C1N[C@@H](CO)CN2CCOc3c(-c4cn[nH]c4)sc1c32 [Compound 48, (R)-7-(hydroxymethyl)-2-(1H-pyrazol-4-yl)-4,5,7,8-tetrahydro-3-oxa-1-thia-5a,8-diazabenzo[cd]azulen-9(6H)-one] | < 1
C[C@H]1CN2CCOc3c(-c4ccnc5[nH]ccc45)sc(c32)C(=O)N1 [Compound 18, (S)-7-methyl-2-(1H-pyrrolo[2,3-b]pyridin-4-yl)-4,5,7,8-tetrahydro-3-oxa-1-thia-5a,8-diazabenzo[cd]azulen-9(6H)-one] | < 1
Cc1ccn(C[C@@H]2CNC(=O)c3sc(-c4cn[nH]c4)c4c3N2CCO4)n1 [Compound 61, (S)-6-((3-methyl-1H-pyrazol-1-yl)methyl)-2-(1H-pyrazol-4-yl)-4,5,7,8-tetrahydro-3-oxa-1-thia-5a,8-diazabenzo[cd]azulen-9(6H)-one] | < 1
CC1(C)NC(=O)c2sc(-c3c[nH]c4ncncc34)c3c2N1CCO3 [Compound 4, 6,6-dimethyl-2-(7H-pyrrolo[2,3-d]pyrimidin-5-yl)-4,5,6,7-tetrahydro-8H-3-oxa-1-thia-5a,7-diazaacenaphthylen-8-one] | 1 to 10
CC1(C)NC(=O)c2sc(-c3ccnc(N)n3)c3c2N1CCO3 [Compound 11, 2-(2-aminopyrimidin-4-yl)-6,6-dimethyl-4,5,6,7-tetrahydro-8H-3-oxa-1-thia-5a,7-diazaacenaphthylen-8-one] | 1 to 10
CC1(C)NC(=O)c2sc(-c3c[nH]c4ncc(Cl)cc34)c3c2N1CCO3 [Compound 10, 2-(5-chloro-1H-pyrrolo[2,3-b]pyridin-3-yl)-6,6-dimethyl-4,5,6,7-tetrahydro-8H-3-oxa-1-thia-5a,7-diazaacenaphthylen-8-one] | 1 to 10
N#CC[C@@H]1CNC(=O)c2sc(-c3cn[nH]c3)c3c2N1CCO3 [Compound 59, (R)-2-(9-oxo-2-(1H-pyrazol-4-yl)-4,5,6,7,8,9-hexahydro-3-oxa-1-thia-5a,8-diazabenzo[cd]azulen-6-yl)acetonitrile] | < 1
O=C1NC(C2CCCCO2)CN2CCCc3c(-c4cn[nH]c4)sc1c32 (single isomer, unassigned) [Compound 110] | < 1

Same assay, conditions: CDC7 ADP-Glo PDKtide IC50, 0.1 nM CDC7/DBF4, 1 uM ATP, 10 uM PDKtide, 4 h

SMILES | IC50 [nM]
O=C1N[C@@H](C2CCC2)C(=O)N2CCOc3c(-c4cn[nH]c4)sc1c32 [Compound 23, (S)-7-cyclobutyl-2-(1H-pyrazol-4-yl)-4,5,7,8-tetrahydro-3-oxa-1-thia-5a,8-diazabenzo[cd] azulene-6,9-dione] | > 10
